Literature values as cited in US20050106735A1, “COMPOSITON FOR NON-TOXIC, NON-HAZARDOUS, AND ENVIRONMENTALLY FRIENDLY HUMIDITY-INDICATING AGENT AND ITS APPLICATION” (GP&E AMERICA, LLC, priority 2004, published 2005).

What was measured:
Rat = conditions: oral

| Compound | Toxicity (ORL-RAT LD50) (Rat) | Concentration at which the substance may cause cancer by inhalation (Commission Directive 2004/73/EC) | European Union carcinogen classification (Council Directive 67/548/EEC) | Toxicity to aquatic organisms (aquatic organisms) |
| --- | --- | --- | --- | --- |
| [Cl][Co][Cl] [Cobalt Chloride] | 80 mg/kg | ≥ 0.01% | category 2 carcinogen | – |
| [Cl][Cu][Cl] [Copper Chloride] | 584 mg/kg | – | – | – |
| [Cl-].[Cl-].[Mg+2] [Magnesium Chloride] | 8100 mg/kg | – | – | – |
| [Cl-].[Na+] [Sodium Chloride] | 3000 mg/kg | – | – | – |
| [Cl-].[Cl-].[Zn+2] [Zinc Chloride] | 350 mg/kg | – | – | very toxic to aquatic organisms |
